The test deals with SARS-CoV-2 Papain-Like Protease (PLpro) (Severe acute respiratory syndrome coronavirus 2 (2019-nCoV) (SARS-CoV-2), UniProt P0DTD1). The experiment in a line: biochemical. As to conditions: SARS-CoV-2 PLpro enzymatic fluorescence assay; read-out: PLpro IC50.

Where only a bound is given, the exact number is not on record here.

Take `Cc1ccc(OC[C@H]2CCN2C)cc1C(=O)NC1(c2cccc3ccccc23)CC1` [Compound 309, (R)-2-Methyl-5-((1-methylazetidin-2-yl)methoxy)-N-(1-(naphthalen-1-yl)cyclopropyl)benzamide]: the IC50 (commonly the point on the concentration scale where inhibition reaches its midpoint) is less than 0.1 µM.

Take `Cc1ccc(OC[C@@H]2CCN2C)cc1C(=O)NC1(c2cccc3ccccc23)CC1` [Compound 310, (S)-2-Methyl-5-((1-methylazetidin-2-yl)methoxy)-N-(1-(naphthalen-1-yl)cyclopropyl)benzamide]: the IC50 is less than 0.1 µM.

As for `Cc1ccc(OCCN(C)C)c(F)c1C(=O)NC1(c2cccc3ccccc23)CC1` [Compound 311, 3-(2-(Dimethylamino)ethoxy)-2-fluoro-6-methyl-N-(1-(naphthalen-1-yl)cyclopropyl)benzamide], the IC50 was in the range of 0.1 to 1 µM.

Take `Cc1ccc(CC(N)=O)cc1C(=O)NC1(c2cccc3ccccc23)CC1` [Compound 312, 5-(2-Amino-2-oxoethyl)-2-methyl-N-(1-(naphthalen-1-yl)cyclopropyl)benzamide]: the 50% inhibitory concentration (IC50) was in the range of 0.1 to 1 µM.

In the case of `Cc1ccc(CC#N)cc1C(=O)NC1(c2cccc3ccccc23)CC1` [Compound 313, 5-(Cyanomethyl)-2-methyl-N-(1-(naphthalen-1-yl)cyclopropyl)benzamide], the IC50 was in the range of 0.1 to 1 µM.

For `CCN1CCC1COc1ccc(C)c(C(=O)NC2(c3cccc4ccccc34)CC2)c1` (stereo not shown) [Compound 314, 5-((1-Ethylazetidin-2-yl)methoxy)-2-methyl-N-(1-(naphthalen-1-yl)cyclopropyl)benzamide], the IC50 is less than 0.1 µM.

Turning to `Cc1ccc(OCCNc2ccccc2)cc1C(=O)NC1(c2cccc3ccccc23)CC1` [Compound 315, 2-Methyl-N-(1-(naphthalen-1-yl)cyclopropyl)-5-(2-(phenylamino)ethoxy)benzamide], the IC50 fell in the range of 1 to 5 µM.

For the compound `Cc1ccc(OCCCN)cc1C(=O)NC1(c2cccc3ccccc23)CC1` [Compound 316, 5-(3-Aminopropoxy)-2-methyl-N-(1-(naphthalen-1-yl)cyclopropyl)benzamide], the IC50 was in the range of 0.1 to 1 µM.

For `Cc1ccc(OCCN(C)C)cc1C(=O)NC1(c2cccc(C)c2Br)CC1` [Compound 317, N-(1-(2-Bromo-3-methylphenyl)cyclopropyl)-5-(2-(dimethylamino)ethoxy)-2-methylbenzamide], the IC50 was 0.1 to 1 µM.

In the case of `Cc1ccc(OCCN(C)C)cc1C(=O)NC1(c2cccc(C)c2C)CC1` [Compound 318, 5-(2-(Dimethylamino)ethoxy)-N-(1-(2,3-dimethylphenyl)cyclopropyl)-2-methylbenzamide], the IC50 lay in the range of 1 to 5 µM.

As for `Cc1ccc(OCCN(C)C)cc1C(=O)NC1(c2cccc3cc(F)ccc23)CC1` [Compound 319, 5-(2-(Dimethylamino)ethoxy)-N-(1-(6-fluoronaphthalen-1-yl)cyclopropyl)-2-methylbenzamide], the IC50 is less than 0.1 µM.

With `COc1cc(C2(NC(=O)c3cc(OCCN(C)C)ccc3C)CC2)c2ccccc2c1` [Compound 320, 5-(2-(Dimethylamino)ethoxy)-N-(1-(3-methoxynaphthalen-1-yl)cyclopropyl)-2-methylbenzamide], the IC50 was less than 0.1 µM.

Consider `Cc1ccc(OCCN(C)C)cc1C(=O)NC1(c2ccccc2C(F)(F)F)CC1` [Compound 321, 5-(2-(Dimethylamino)ethoxy)-2-methyl-N-(1-(2-(trifluoromethyl)phenyl)cyclopropyl)benzamide], for which the IC50 lay within 0.1 to 1 µM.

`Cc1ccc(OCC(N)Cc2ccccc2)cc1C(=O)NC1(c2cccc3ccccc23)CC1` (stereo not shown) [Compound 322, 5-(2-Amino-3-phenylpropoxy)-2-methyl-N-(1-(naphthalen-1-yl)cyclopropyl)benzamide]: the IC50 is less than 0.1 µM.

Take `Cc1ccc(OCC2CCN2C(C)C)cc1C(=O)NC1(c2cccc3ccccc23)CC1` (stereo not shown) [Compound 323, 5-((1-Isopropylazetidin-2-yl)methoxy)-2-methyl-N-(1-(naphthalen-1-yl)cyclopropyl)benzamide]: the IC50 is less than 0.1 µM.

Consider `Cc1ccc(OCC(C)N)cc1C(=O)NC1(c2cccc3ccccc23)CC1` (stereo not shown) [Compound 324, 5-(2-Aminopropoxy)-2-methyl-N-(1-(naphthalen-1-yl)cyclopropyl)benzamide], for which the IC50 was less than 0.1 µM.

Consider `Cc1ccc(OCCN(C)C)cc1C(=O)NC1(c2cccc(-c3ccsc3)c2)CC1` [Compound 325, 5-(2-(Dimethylamino)ethoxy)-2-methyl-N-(1-(3-(thiophen-3-yl)phenyl)cyclopropyl)benzamide], for which the IC50 lay in the range of 0.1 to 1 µM.

Turning to `Cc1ccc(OCCN(C)C)cc1C(=O)NC1(c2ccccc2Cl)CC1` [Compound 326, N-(1-(2-chlorophenyl)cyclopropyl)-5-(2-(dimethylamino)ethoxy)-2-methylbenzamide], the IC50 lay in the range of 1 to 5 µM.

Regarding `Cc1ccc(OCCN(C)C)cc1C(=O)NC1(c2ccccc2OCc2ccccc2)CC1` [Compound 327, N-(1-(2-(Benzyloxy)phenyl)cyclopropyl)-5-(2-(dimethylamino)ethoxy)-2-methylbenzamide], the IC50 lay within 1 to 5 µM.

For `Cc1ccc(OCCN(C)C)cc1C(=O)NC1(c2cccc3c2CCCC3)CC1` [Compound 329, 5-(2-(Dimethylamino)ethoxy)-2-methyl-N-(1-(5,6,7,8-tetrahydronaphthalen-1-yl)cyclopropyl)benzamide], the IC50 is 0.1 to 1 µM.

As for `Cc1ccc(OCC2CCN2Cc2ccccc2)cc1C(=O)NC1(c2cccc3ccccc23)CC1` (stereo not shown) [Compound 330, 5-((1-Benzylazetidin-2-yl)methoxy)-2-methyl-N-(1-(naphthalen-1-yl)cyclopropyl)benzamide], the half-maximal inhibitory concentration (IC50) is less than 0.1 µM.

For `Cc1ccc(OCC2CCN2c2ccccc2)cc1C(=O)NC1(c2cccc3ccccc23)CC1` (stereo not shown) [Compound 331, 2-Methyl-N-(1-(naphthalen-1-yl)cyclopropyl)-5-((1-phenylazetidin-2-yl)methoxy)benzamide], the IC50 is more than 5 µM.

With `Cc1ccc(OCC2CCN2CC2CC2)cc1C(=O)NC1(c2cccc3ccccc23)CC1` (stereo not shown) [Compound 332, 5-((1-(Cyclopropylmethyl)azetidin-2-yl)methoxy)-2-methyl-N-(1-(naphthalen-1-yl)cyclopropyl)benzamide], the IC50 is less than 0.1 µM.

`Cc1ccc(OCCN(C)C)cc1C(=O)NC1(c2cccc3ccncc23)CC1` [Compound 333, 5-(2-(Dimethylamino)ethoxy)-N-(1-(isoquinolin-8-yl)cyclopropyl)-2-methylbenzamide]: the IC50 lay within 0.1 to 1 µM.

For the compound `Cc1cc2c3c([nH]c2cc1C(=O)NC1(c2cccc4ccccc24)CC1)C(=O)CC3` [Compound 334, 7-Methyl-N-(1-(naphthalen-1-yl)cyclopropyl)-3-oxo-1,2,3,4-tetrahydrocyclopenta[b]indole-6-carboxamide], the IC50 fell in the range of 1 to 5 µM.

For the compound `Cc1ccc(OCCN(C)C)cc1C(=O)NC1(c2cccc(Cl)c2Cl)CC1` [Compound 335, N-(1-(2,3-Dichlorophenyl)cyclopropyl)-5-(2-(dimethylamino)ethoxy)-2-methylbenzamide], the IC50 lay within 0.1 to 1 µM.

For the compound `Cc1ccc(OCCN(C)C)cc1C(=O)NC1(c2cccc(Br)c2C)CC1` [Compound 336, N-(1-(3-Bromo-2-methylphenyl)cyclopropyl)-5-(2-(dimethylamino)ethoxy)-2-methylbenzamide], the IC50 fell in the range of 0.1 to 1 µM.

As for `C#Cc1ccc(OCCN(C)C)cc1C(=O)NC1(c2cccc3ccccc23)CC1` [Compound 337, 5-(2-(Dimethylamino)ethoxy)-2-ethynyl-N-(1-(naphthalen-1-yl)cyclopropyl)benzamide], the IC50 is more than 5 µM.

The values above are taken from US20250025443A1, “COMPOUNDS AND METHODS FOR TREATING CORONA VIRUSES” (CLEAR CREEK BIO, INC., priority 2021, published 2025).
